The series is described as follows: Solubility in water. It is filed as physicochemical. The note with it: sugar residue as R5 or/and R6.

For `CCN(CC)c1ccc2c(-c3ccccc3C(=O)N(C)CC(O)C(O)C(O)C(O)CO)c3ccc(=[N+](CC)CC)cc-3oc2c1` (stereo not shown) [Compound 51], the solubility in water result is given as “high solubility in water”.
